# Assay results taken from ChEMBL document CHEMBL1127340, “A new approach to the design of sigma-2-selective ligands: synthesis and evaluation of N-[2-(3,4-dichlorophenyl)ethyl]-N-methyl-2-(1- pyrrolidinyl)ethylamine-related polyamines at sigma-1 and sigma-2 receptor subtypes” (J Med Chem, 1994).
# Biological target: Sigma 2 receptor
# Test: Binding affinity towards sigma 2 receptor was determined in rat liver membrane using [3H]DTG as radioligand in presence of dextrallorphan
# Format: cell membranes
row,Structure (SMILES),Ki
1,CN(CCCCN1CCCC1)CCCN(C)CCc1ccc(Cl)c(Cl)c1,152 nM
2,NCCNCCNCCc1ccc(Cl)c(Cl)c1,537 nM
3,NCCN(CCc1ccc(Cl)c(Cl)c1)CCN1CCCC1,135 nM
4,CN(CCc1ccc(Cl)c(Cl)c1)CCN(C)CCN1CCCC1,14.4 nM
5,CN(CCCCN(C)CCc1ccc(Cl)c(Cl)c1)CCCCN1CCCC1,115 nM
6,CN(CCc1ccc(Cl)c(Cl)c1)CCN(C)CCN(C)CCN1CCCC1,53.6 nM
7,CN(CCCN(C)Cc1ccc(Cl)c(Cl)c1)CCN1CCCC1,52.6 nM
8,CN(CCCN(C)CCc1ccc(Cl)c(Cl)c1)CCCN1CCCC1,14.9 nM
9,CN(CCN(C)Cc1ccc(Cl)c(Cl)c1)CCN1CCCC1,12.1 nM
10,Clc1ccc(CCN2CCCC2)cc1Cl,7700 nM
11,Clc1ccc(CCNCCNCCN2CCCC2)cc1Cl,111 nM
12,CN(CCCN1CCCC1)CCN(C)Cc1ccc(Cl)c(Cl)c1,183 nM
13,CN(CCc1ccc(Cl)c(Cl)c1)CCN1CCCC1,8.1 nM
14,CN(CCc1ccc(Cl)c(Cl)c1)CCN(C)CCN(C)CCN(C)CCN1CCCC1,162 nM
15,NCCNCCc1ccc(Cl)c(Cl)c1,2360 nM
